According to patent US11739098B2 (BRISTOL-MYERS SQUIBB COMPANY, priority 2017, dated 2023):

What was measured:
Type in all cases: cell-based
human TLR8 = target: T1, human TLR8 (Homo sapiens, UniProt Q9NR97); assay: TLR8 inhibition reporter assay (HEK-Blue cells, SEAP reporter, R848 stimulation); conditions: HEK-Blue cells overexpressing human TLR8, SEAP reporter, R848 15.9 μM
T1 construct: host or cells: HEK-Blue cells (HEK293-derived reporter line)
T1 sequence (Q9NR97 27-1041): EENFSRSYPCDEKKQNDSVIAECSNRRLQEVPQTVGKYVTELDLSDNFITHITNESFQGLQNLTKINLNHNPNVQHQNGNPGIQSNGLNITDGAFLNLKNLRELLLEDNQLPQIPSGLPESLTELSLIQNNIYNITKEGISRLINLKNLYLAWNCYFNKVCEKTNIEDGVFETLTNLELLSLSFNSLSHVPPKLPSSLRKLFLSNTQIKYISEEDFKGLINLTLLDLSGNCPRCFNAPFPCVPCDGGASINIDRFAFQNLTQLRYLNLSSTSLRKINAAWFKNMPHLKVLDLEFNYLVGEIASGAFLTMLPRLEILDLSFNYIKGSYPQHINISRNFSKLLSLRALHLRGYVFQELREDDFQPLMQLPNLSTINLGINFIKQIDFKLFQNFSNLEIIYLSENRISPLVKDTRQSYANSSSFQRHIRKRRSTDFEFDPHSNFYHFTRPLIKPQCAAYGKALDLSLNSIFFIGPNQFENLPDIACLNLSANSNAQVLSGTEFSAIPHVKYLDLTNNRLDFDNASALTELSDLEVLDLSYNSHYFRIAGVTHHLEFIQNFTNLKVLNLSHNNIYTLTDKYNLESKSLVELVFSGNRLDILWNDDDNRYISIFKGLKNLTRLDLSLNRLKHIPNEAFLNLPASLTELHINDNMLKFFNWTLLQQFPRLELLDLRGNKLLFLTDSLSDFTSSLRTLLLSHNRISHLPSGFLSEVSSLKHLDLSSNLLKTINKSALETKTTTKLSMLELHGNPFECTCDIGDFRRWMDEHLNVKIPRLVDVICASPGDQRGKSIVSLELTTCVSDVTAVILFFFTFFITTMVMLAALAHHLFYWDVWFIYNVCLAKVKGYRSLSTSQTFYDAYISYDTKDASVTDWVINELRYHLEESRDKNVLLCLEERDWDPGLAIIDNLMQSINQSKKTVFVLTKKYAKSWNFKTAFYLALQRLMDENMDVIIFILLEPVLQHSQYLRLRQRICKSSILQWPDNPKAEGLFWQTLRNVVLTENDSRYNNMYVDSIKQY
Method in brief: (§1)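 Agonists (final): TLR7 gardiquimod 7.5 μM; TLR8 R848 15.9 μM; TLR9 ODN2006 5 nM. HEK-Blue reporter cells, 30 min RT compound pre-incubation, 0.05 nM–50 μM dose range, 22 h at 37 °C, colorimetric SEAP detection medium. % inhibition relative to agonist+DMSO and known-inhibitor wells.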

human TLR7 = target: T2, human TLR7 (Homo sapiens, UniProt Q9NYK1); assay: TLR7 inhibition reporter assay (HEK-Blue cells, SEAP reporter, gardiquimod stimulation); conditions: HEK-Blue cells overexpressing human TLR7, SEAP reporter, gardiquimod 7.5 μM
T2 construct: host or cells: HEK-Blue cells (HEK293-derived reporter line)
T2 sequence (Q9NYK1 27-1049): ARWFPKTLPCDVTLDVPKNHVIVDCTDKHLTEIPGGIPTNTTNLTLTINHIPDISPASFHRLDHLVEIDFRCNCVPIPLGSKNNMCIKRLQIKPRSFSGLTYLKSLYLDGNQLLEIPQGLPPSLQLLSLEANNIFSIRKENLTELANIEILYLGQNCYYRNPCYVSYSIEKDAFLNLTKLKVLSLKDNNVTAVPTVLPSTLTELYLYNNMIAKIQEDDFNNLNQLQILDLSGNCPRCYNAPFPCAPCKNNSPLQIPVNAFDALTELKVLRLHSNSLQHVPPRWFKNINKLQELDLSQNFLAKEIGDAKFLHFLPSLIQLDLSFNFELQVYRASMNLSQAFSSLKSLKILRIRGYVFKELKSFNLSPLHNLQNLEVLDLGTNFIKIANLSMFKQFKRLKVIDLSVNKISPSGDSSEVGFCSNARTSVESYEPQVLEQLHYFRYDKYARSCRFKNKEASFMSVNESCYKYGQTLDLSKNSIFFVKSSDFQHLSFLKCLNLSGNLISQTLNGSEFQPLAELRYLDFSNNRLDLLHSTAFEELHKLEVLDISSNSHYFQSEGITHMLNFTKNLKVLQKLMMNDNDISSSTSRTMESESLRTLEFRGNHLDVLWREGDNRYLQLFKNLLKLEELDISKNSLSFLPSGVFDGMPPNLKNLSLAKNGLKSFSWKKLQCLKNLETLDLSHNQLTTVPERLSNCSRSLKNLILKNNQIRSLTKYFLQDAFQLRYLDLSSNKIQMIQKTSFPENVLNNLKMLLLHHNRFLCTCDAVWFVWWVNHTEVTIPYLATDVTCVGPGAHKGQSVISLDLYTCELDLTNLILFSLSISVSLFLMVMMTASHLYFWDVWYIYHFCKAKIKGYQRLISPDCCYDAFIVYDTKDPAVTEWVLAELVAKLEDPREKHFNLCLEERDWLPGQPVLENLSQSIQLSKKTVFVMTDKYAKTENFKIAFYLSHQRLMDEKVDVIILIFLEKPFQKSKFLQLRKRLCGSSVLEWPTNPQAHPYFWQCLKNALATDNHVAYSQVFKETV
Method in brief: as §1

human TLR9 = target: T3, human TLR9 (Homo sapiens, UniProt Q9NR96); assay: TLR9 inhibition reporter assay (HEK-Blue cells, SEAP reporter, ODN2006 stimulation); conditions: HEK-Blue cells overexpressing human TLR9, SEAP reporter, ODN2006 5 nM
T3 construct: host or cells: HEK-Blue cells (HEK293-derived reporter line)
T3 sequence (Q9NR96 26-1032): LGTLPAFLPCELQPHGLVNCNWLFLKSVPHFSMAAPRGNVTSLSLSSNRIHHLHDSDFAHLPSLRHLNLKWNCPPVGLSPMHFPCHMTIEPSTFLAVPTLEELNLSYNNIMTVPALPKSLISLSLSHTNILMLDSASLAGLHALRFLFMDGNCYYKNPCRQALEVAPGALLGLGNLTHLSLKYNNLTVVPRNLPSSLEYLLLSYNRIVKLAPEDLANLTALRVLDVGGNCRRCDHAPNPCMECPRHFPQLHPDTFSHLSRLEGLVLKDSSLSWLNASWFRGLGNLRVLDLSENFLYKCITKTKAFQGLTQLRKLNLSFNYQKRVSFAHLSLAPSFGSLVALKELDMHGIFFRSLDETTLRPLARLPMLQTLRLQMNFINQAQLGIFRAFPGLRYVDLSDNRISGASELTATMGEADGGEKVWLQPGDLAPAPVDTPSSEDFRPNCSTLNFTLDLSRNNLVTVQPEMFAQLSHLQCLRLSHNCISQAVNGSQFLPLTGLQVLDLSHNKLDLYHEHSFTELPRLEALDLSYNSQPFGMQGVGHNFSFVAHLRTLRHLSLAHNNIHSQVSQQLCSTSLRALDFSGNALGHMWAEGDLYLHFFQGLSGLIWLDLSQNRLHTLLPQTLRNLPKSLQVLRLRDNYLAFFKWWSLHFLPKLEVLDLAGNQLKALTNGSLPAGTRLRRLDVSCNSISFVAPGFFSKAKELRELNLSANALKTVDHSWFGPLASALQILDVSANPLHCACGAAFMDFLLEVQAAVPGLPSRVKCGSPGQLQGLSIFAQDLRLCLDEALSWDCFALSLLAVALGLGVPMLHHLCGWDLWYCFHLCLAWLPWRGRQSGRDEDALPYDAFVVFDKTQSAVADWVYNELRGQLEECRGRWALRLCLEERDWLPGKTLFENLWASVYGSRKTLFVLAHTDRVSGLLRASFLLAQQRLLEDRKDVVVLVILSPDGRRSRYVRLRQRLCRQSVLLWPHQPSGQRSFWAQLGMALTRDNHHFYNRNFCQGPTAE
Method in brief: as §1

Row | SMILES | IC50 (human TLR8) | IC50 (human TLR7) | IC50 (human TLR9)
1 | Cc1cn2c(C)cc(-c3[nH]c4ccc(C5CCN(C(=O)CN(C)C)CC5)cc4c3C(C)C)cc2n1 [Example 499, 2-(dimethylamino)-1-(4-(2-(2,5-dimethylimidazo[1,2-a]pyridin-7-yl)-3-isopropyl-1H-indol-5-yl)piperidin-1-yl)ethan-1-one] | 1 to 50 µM | 0.1 to 1 µM | 0.1 to 1 µM
2 | CC(C)c1c(-c2ccc3ncnn3n2)[nH]c2ccc(C3CCN(C(=O)CN(C)C)CC3)cc12 [Example 452, 1-(4-(2-([1,2,4]triazolo[1,5-b]pyridazin-6-yl)-3-isopropyl-1H-indol-5-yl)piperidin-1-yl)-2-(dimethylamino)ethan-1-one] | < 0.1 µM | < 0.1 µM | 1 to 50 µM
3 | COc1cc(-c2[nH]c3ccc(C4CCNCC4)cc3c2C(C)C)nn2ncnc12 [Example 38, 6-(3-isopropyl-5-(piperidin-4-yl)-1H-indol-2-yl)-8-methoxy-[1,2,4]triazolo[1,5-b]pyridazine] | < 0.1 µM | < 0.1 µM | 0.1 to 1 µM
4 | CC(C)c1c(-c2cnc3cnccn23)[nH]c2ccc(C3CCNCC3)cc12 [Example 194, 3-(3-isopropyl-5-(piperidin-4-yl)-1H-indol-2-yl)imidazo[1,2-a]pyrazine] | 1 to 50 µM | 1 to 50 µM | 0.1 to 1 µM
5 | Cc1cc(-c2[nH]c3ccc(C4CCN(C(=O)CN(C)C)CC4)cc3c2C(C)C)cc2c1oc(=O)n2C [Example 489, 5-(5-(1-(dimethylglycyl)piperidin-4-yl)-3-isopropyl-1H-indol-2-yl)-3,7-dimethylbenzo[d]oxazol-2(3H)-one] | 0.1 to 1 µM | < 0.1 µM | 1 to 50 µM
6 | Cc1nc2c(C)cc(-c3[nH]c4ccc(C5CCNCC5)cc4c3C(C)C)cn2c1C [Example 132, 6-(3-isopropyl-5-(piperidin-4-yl)-1H-indol-2-yl)-2,3,8-trimethylimidazo[1,2-a]pyridine] | 0.1 to 1 µM | < 0.1 µM | 0.1 to 1 µM
7 | CNCC(=O)N1CCC(c2ccc3[nH]c(-c4cnc5ccnn5c4)c(C(C)C)c3c2)CC1 [Example 503, 1-(4-(3-isopropyl-2-(pyrazolo[1,5-a]pyrimidin-6-yl)-1H-indol-5-yl)piperidin-1-yl)-2-(methylamino)ethan-1-one] | > 3.13 µM | 0.1 to 1 µM | 0.1 to 1 µM

Continued, values first:

Row | IC50 (human TLR8) | IC50 (human TLR7) | IC50 (human TLR9) | SMILES
8 | < 0.1 µM | < 0.1 µM | 1 to 50 µM | CC(C)c1c(-c2cn(C)c3ncncc23)[nH]c2ccc(C3CCN(C4CCOCC4)CC3)cc12 [Example 688, 5-(3-isopropyl-5-(1-(tetrahydro-2H-pyran-4-yl)piperidin-4-yl)-1H-indol-2-yl)-7-methyl-7H-pyrrolo[2,3-d]pyrimidine]
9 | < 0.1 µM | < 0.1 µM | 0.1 to 1 µM | CNCCN1CCC(c2ccc3[nH]c(-c4ccnc5[nH]ncc45)c(C(C)C)c3c2)C(F)C1 (stereo not drawn) [Example 679, 2-(3-fluoro-4-(3-isopropyl-2-(1H-pyrazolo[3,4-b]pyridin-4-yl)-1H-indol-5-yl)piperidin-1-yl)-N-methylethan-1-amine]
10 | < 0.1 µM | < 0.1 µM | < 0.1 µM | CCc1c(-c2ccnc3[nH]ccc23)[nH]c2ccc(C3CCN(C4CCN(C)CC4)CC3)cc12 [Example 839, 4-(3-ethyl-5-(1′-methyl-[1,4′-bipiperidin]-4-yl)-1H-indol-2-yl)-1H-pyrrolo[2,3-b]pyridine]
11 | < 0.1 µM | < 0.1 µM | 1 to 50 µM | CC(C)c1c(-c2ccnc3[nH]ccc23)[nH]c2ccc(C3CCN(C(=O)CN(C)C)CC3)cc12 [Example 564, 2-(dimethylamino)-1-(4-(3-isopropyl-2-(1H-pyrrolo[2,3-b]pyridin-4-yl)-1H-indol-5-yl)piperidin-1-yl)ethan-1-one]
12 | < 0.1 µM | 0.1 to 1 µM | 1 to 50 µM | CC(C)c1c(-c2ccnc3[nH]ncc23)[nH]c2ccc(C3CCN(Cc4ccc(N5CCCC5)cc4)CC3)cc12 [Example 905, 4-(3-isopropyl-5-(1-(4-(pyrrolidin-1-yl)benzyl)piperidin-4-yl)-1H-indol-2-yl)-1H-5 pyrazolo[3,4-b]pyridine]
13 | 1 to 50 µM | 1 to 50 µM | < 0.1 µM | Cc1c(-c2ncc3[nH]ccc3n2)[nH]c2ccc(C3CCN(C4CCN(C(C)C)CC4)CC3)cc12 [Example 808, 2-(5-(1′-isopropyl-[1,4′-bipiperidin]-4-yl)-3-methyl-1H-indol-2-yl)-5H-pyrrolo[3,2-d]pyrimidine]
14 | < 0.1 µM | < 0.1 µM | 1 to 50 µM | Cc1cc(-c2[nH]c3ccc(C4CCN(C(=O)CN(C)C)CC4)cc3c2C(C)C)cc2nccnc12 [Example 518, 2-(dimethylamino)-1-(4-(3-isopropyl-2-(8-methylquinoxalin-6-yl)-1H-indol-5-yl)piperidin-1-yl)ethan-1-one]
15 | < 0.1 µM | < 0.1 µM | 0.1 to 1 µM | CC(C)c1c(-c2ccc3nccn3c2)[nH]c2ccc(C3CCN(C)CC3)cc12 [Example 947, 6-(3-isopropyl-5-(1-methylpiperidin-4-yl)-1H-indol-2-yl)imidazo[1,2-a]pyridine]
